Data from patent US20160281095A1, “Alkynyl-Derivatized Cap Analogs, Preparation and Uses Thereof” (LIFE TECHNOLOGIES CORPORATION, priority 2011, published 2016).

Assays:
[1] = molecular target: T7 RNA polymerase (Escherichia phage T7, UniProt P00573); details: T7 RNA polymerase transcription, pTri β actin template, cap analog 1.6 mM, GTP 0.4 mM, 37° C. 2 h, 20% dPAGE gel
Description: The gel shift assay was performed by using a pTri β actin template and the IVT reaction used linearized AmbLuc poly(A) DNA template and a [sequence] kit (Life Technologies Corporation). Radiation in the gel bands of interest was quantified by a phosphorimager (GE Healthcare).
To analyze capping efficiency during transcription a Gel Shift Assay was used. The Gel shift assay was performed using the MAXISCRIPT kit (Life Technologies Corporation) by following the manufacturer's protocol. A typical 20 μL T7 RNA polymerase transcription reaction contained the following reagents at the final concentrations indicated: linearized pTri β actin vector template, 0.5 μg; ATP, 2 mM; GTP, 0.4 mM; compound standard cap analog and alkynyl-derivatized cap analog 7, 1.6 mM each in separate reactions; 10× reaction buffer, 4 μl; T7 RNA polymerase, 50 units/μL; (α-^32P) ATP, 800 (Ci/mmol); and DEPC water. The control reaction was a normal in vitro transcription reaction, in which no cap analog was added. […] Radiation in the gel bands of interest was quantified by a phosphoroimager (GE Healthcare).
Due to the omission of CTP and UTP, only the 5′ end was transcribed by T7 RNA polymerase, producing a transcript of six nucleotides in length. The resulting transcription products were analyzed by 20% denaturing polyacrylamide/8 M urea gel.

[2] = system: HeLa cells; experiment: Translation efficiency: luciferase activity after transfection of capped luciferase mRNA poly(A); type: cell-based; details: luciferase mRNA poly(A) transfected into HeLa cells, 16 h, versus m^7GpppG-capped mRNA
Description: Alkynyl-derivatized capped mRNAs were produced in vitro for use in translation assays. […] In order to hydrolyze the remaining plasmid DNA, 1 μL of TURBO DNase was added to the reaction mixture and further incubated at 37° C. for 15 min. Purification of transcription reactions was done by using the MEGAclear™ kit (Life Technologies Corp) as per manufacturer's protocol. The in vitro transcription results in a mixture of 5′analog-capped and uncapped mRNAs.
To determine the translational efficiency, the luciferase mRNA poly(A) product generated from the transcription reaction using a standard cap and the luciferase mRNA poly(A) product generated as described above using the alkyne-derivatized cap 7 were transfected separately into HeLa cells.
The HeLa cells (60,000/well in 24 well-plates) were seeded at least 12 h before transfection in growth medium without antibiotics. Capped RNA was prepared by mixing 600 ng of RNA, 2.5 μL of TFX-20™ (Promega), and 300 μL of serum-free DMEM in polystyrene tubes and incubated for 15 min at room temperature. […] The plate was mixed carefully to disrupt the cells and 10 μL of cell lysates from each transfection reactions were mixed with 100 μL of luciferase substrate (Promega) and measured immediately on a POLARstar OPTIMA Luminometer (BMG Labtech) in 96-well plates. […]

T7 RNA polymerase, sequence (P00573 whole entry): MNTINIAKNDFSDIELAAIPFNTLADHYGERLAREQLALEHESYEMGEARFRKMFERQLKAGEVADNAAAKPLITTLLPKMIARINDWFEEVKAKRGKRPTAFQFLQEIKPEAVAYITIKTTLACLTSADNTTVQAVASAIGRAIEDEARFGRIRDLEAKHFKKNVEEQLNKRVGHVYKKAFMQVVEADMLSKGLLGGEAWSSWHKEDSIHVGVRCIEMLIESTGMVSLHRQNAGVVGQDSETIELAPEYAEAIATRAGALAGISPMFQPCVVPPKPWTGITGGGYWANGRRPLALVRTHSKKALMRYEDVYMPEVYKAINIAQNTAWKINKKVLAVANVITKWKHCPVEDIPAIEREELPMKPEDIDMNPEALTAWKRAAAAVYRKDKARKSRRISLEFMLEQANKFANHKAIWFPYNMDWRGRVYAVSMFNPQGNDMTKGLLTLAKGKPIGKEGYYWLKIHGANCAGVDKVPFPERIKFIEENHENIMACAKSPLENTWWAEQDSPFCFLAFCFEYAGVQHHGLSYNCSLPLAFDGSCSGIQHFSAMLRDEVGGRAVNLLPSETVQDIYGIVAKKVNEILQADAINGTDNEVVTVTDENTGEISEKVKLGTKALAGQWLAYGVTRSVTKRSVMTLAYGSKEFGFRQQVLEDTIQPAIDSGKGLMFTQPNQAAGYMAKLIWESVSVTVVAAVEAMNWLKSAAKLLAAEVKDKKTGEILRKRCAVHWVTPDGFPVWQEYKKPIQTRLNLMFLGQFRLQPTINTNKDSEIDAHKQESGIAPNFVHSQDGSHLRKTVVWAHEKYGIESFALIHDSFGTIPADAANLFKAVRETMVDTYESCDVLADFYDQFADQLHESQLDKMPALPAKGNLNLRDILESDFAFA

SMILES	capping efficiency [1]	translational efficiency (luciferase signal) relative to mRNA capped with the standard cap analog [2]	translational efficiency (luciferase signal) relative to mRNA capped with the standard cap analog ([2]; listed as 3′-O-propargyl substituted cap analog)
C#CCO[C@H]1[C@@H](O)[C@H](n2c[n+](C)c3c(=O)[nH]c(N)nc32)O[C@@H]1COP(=O)(O)OP(=O)(O)OP(=O)(O)OC[C@H]1O[C@@H](n2cnc3c(=O)[nH]c(N)nc32)[C@H](O)[C@@H]1O [compound 7, m^7,3′-O-propargylG[5′]ppp[5′]G]	60%	up to 3 fold	3.1 fold
Cn1c[n+]([C@@H]2O[C@H](COP(=O)(O)OP(=O)(O)OP(=O)(O)OC[C@H]3O[C@@H](n4cnc5c(=O)[nH]c(N)nc54)[C@H](O)[C@@H]3O)[C@@H](O)[C@H]2O)c2nc(N)[nH]c(=O)c21 [standard cap, m^7G(5′)ppp(5′)G, reference compound]	73%	–	–
